Source: US20250304576A1 (Cancer Research Technology Limited, priority 2022, published 2025)

Key:
[1] = test system: LNCaP cells; assay: Cell viability, alamarBlue assay, LNCaP cells; type: cell-based; conditions: treatment for 48 hours
Description: (§1) PC3, PC3M, LNCaP Al, cells were grown in RPMI 1640 media and PANC1 and MiaPac-2 cells were grown in Dulbecco's Modified Eagle's Media (DMEM) which was supplemented with 10% (v/v) Foetal Calf Serum (FCS) (Charcoal-stripped for LNCaP Als), L-glutamine ([…]) and penicillin/streptomycin (250 units/ml; 100 μg/ml). All cells were incubated in a humidified atmosphere at 37° C. and 5% (v/v) CO2. Cells were cultured as a monolayer in 10 ml media in […] vented flasks and grown until subculture was required.
(§2) Cell viability determination: Cells (1000 cells/100 μl) were plated into 96 well plates and incubated for 24 hours at 37° C. and 5% (v/v) CO2 before being treated with SU1433. After incubation with SU1433 for 48 h, cell viability was measured using the alamarBlue® Assay (Thermofisher, UK). The media was removed and replaced with a 1:10 media to alamar blue solution. After a 1 h incubation at 37° C. and 5% CO2, the fluorescence was measured at 530-560 nm excitation wavelength and 590 nm emission wavelength in a fluorescence plate reader. All treatment were measured in duplicate wells and repeated at least 3 times. The results represent the fractional survival of untreated controls±SD.

[2] = test system: PC3M cells; assay: Cell viability, alamarBlue assay, PC3M cells; type: cell-based; conditions: treatment for 48 hours
Description: as §1, §2

## CC(C)(C)C#Cc1cc(-c2ccnc(N)c2)cc2c(N)n[nH]c12 [Example 137, 5-(2-Aminopyridin-4-yl)-7-(3,3-dimethylbut-1-yn-1-yl)-1H-indazol-3-amine]
[1]
  viability of LNCaP cells: reduced the viability
[2]
  viability of PC3M cells: reduced the viability
